Reference: patent US9034877B2 (Wayne State University, priority 2009, dated 2015)
“Also recorded” adds a separate entry of the source.

What was measured:
hD3 receptor = target: T1, hD3 receptor (Homo sapiens, UniProt P35462); assay: Stimulation of [35S]GTPγS binding, hD3 receptor expressed in CHO cells; assay type: biochemical
T1 construct: expressed in transfected cells; host or cells: CHO

reserpinized rats = assay: Reversal of reserpine-induced hypolocomotion in rats; assay type: in vivo, rat; details: 10 μMol/kg; for Reversal of reserpine-induced hypolocomotion (horizontal locomotor activity): (−)19b i.p., ropinirole s.c., 18 h after reserpine 5 mg/kg s.c., 6 h
Description: Administration of reserpine induces catalepsy in rodents primarily by blocking the vesicular monoamine trasporter (VMAT) which helps in the internalization of monoamines into vesicles, resulting in metabolism of unprotected monoamines in the cytosol that ultimately causes depletion of monoamines in the synapse of the peripheral sympathetic nerve terminals. The ability of the compound (-)-19b to reverse the reserpine induced hypolocomotion was investigated. Ropinirole was used as standard reference compound in this study. Reserpine (5.0 mg/kg, s.c.) or saline (s.c.) were administered 18 h before the injection of drug or vehicle (i.p.). The rats were placed individually in chambers for 1 h for acclimatization purpose before the administration of the test drug, standard drug or vehicle. Immediately after administration of drug or vehicle, animals were individually placed in […] animal activity monitor chamber (45×30×20 cm) (AccuScan Instruments, Inc. Columbus, Ohio) to start measuring locomotor activity. Locomotion was monitored for 6 h. Consecutive interruption of two infrared beams situated 24 cm apart and 4 cm above the cage floor in the monitor chamber recorded movement. The data were presented as horizontal counts (HACTV). The effect of the individual doses of drugs on locomotor activity was compared with respect to saline treated controls (mean±S.E.M.). The data were analyzed by one way analysis of variance (ANOVA) followed by Dunnett's post-hoc test.

6-OHDA lesioned rats = assay: Rotational experiment with 6-OHDA unilaterally lesioned rats; assay type: in vivo, rat
D2L receptor = target: T2, D2L receptor (Rattus norvegicus, UniProt P61169); assay: Inhibition of [3H]spiperone binding to cloned D2L receptors expressed in HEK-293 cells; details: rat D2L in HEK-293 cells, read-out: Ki, D2 receptor
T2 construct: expressed in transfected cells
T2 sequence (P61169 whole entry): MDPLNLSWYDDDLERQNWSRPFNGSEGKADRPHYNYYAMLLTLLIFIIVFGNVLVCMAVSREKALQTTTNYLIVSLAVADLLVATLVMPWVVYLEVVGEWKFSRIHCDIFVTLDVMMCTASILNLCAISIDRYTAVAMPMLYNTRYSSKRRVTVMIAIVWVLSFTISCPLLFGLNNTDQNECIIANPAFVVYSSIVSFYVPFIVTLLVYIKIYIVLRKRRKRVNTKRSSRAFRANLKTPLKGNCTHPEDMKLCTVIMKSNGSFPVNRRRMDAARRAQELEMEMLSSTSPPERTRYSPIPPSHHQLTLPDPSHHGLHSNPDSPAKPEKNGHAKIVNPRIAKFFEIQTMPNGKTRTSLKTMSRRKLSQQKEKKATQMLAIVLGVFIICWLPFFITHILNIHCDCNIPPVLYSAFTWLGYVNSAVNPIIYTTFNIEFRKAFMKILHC

D3 receptor = target: T3, D3 receptor (Rattus norvegicus, UniProt P19020); assay: Inhibition of [3H]spiperone binding to cloned D3 receptors expressed in HEK-293 cells; details: [3H]spiperone, rat D3 in HEK-293 cells
T3 construct: expressed in transfected cells
T3 sequence (P19020 whole entry): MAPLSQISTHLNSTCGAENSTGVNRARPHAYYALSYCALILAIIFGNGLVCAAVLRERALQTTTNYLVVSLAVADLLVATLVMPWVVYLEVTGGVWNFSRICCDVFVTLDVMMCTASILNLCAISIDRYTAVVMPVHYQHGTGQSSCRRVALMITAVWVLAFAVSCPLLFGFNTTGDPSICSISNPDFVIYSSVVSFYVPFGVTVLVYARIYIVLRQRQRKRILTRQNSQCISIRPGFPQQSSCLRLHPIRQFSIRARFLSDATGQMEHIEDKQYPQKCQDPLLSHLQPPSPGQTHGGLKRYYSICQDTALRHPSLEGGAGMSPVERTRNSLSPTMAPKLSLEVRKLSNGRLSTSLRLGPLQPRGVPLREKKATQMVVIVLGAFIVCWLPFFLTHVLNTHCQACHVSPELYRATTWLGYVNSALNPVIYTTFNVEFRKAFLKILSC

[1] = background statement; cited from earlier work

T1 sequence (P35462 whole entry): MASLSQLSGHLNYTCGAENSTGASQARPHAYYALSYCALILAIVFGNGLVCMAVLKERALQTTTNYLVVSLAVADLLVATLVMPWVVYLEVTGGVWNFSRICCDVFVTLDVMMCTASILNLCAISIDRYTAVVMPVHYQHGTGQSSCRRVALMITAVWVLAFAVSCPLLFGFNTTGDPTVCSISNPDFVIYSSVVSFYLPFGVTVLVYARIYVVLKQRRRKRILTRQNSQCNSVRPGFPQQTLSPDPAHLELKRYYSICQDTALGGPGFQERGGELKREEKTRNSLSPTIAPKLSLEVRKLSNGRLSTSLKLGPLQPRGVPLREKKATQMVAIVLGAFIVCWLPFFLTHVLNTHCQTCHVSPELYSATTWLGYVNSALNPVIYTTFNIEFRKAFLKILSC

## CCCN(CCN1CCN(c2ccnc3c(O)cccc23)CC1)C1CCc2ccc(O)cc2C1 (single isomer, unassigned; (+)) [(+)19a, (+)-4-(4-(2-((7-hydroxy-1,2,3,4-tetrahydronaphthalen-2-yl) (propyl)amino)ethyl)piperazin-1-yl)quinolin-8-ol]
hD3 receptor
  Agonism at D3 compared with dopamine: full or near-complete agonism

## CCCN(CCN1CCN(c2ccnc3c(O)cccc23)CC1)C1CCc2c(O)cccc2C1 (single isomer, unassigned; (-)) [Compound (−)19b, (−)-4-(4-(2-((5-hydroxy-1,2,3,4-tetrahydronaphthalen-2-yl) (propyl)amino)ethyl)piperazin-1-yl)quinolin-8-ol]
hD3 receptor
  Agonism at D3 compared with dopamine: full or near-complete agonism
Reserpinized rats
  Reversal of reserpine-induced hypolocomotion (horizontal locomotor activity): highly efficacious; also recorded: significantly different
6-OHDA lesioned rats; 1 μMol/kg (0.61 mg/kg), 11 h
  Rotational activity at the higher dose: remained high at the termination of the experiments

## CCCN(CCN1CCN(C(=O)c2cc3ccccc3s2)CC1)C1CCc2c(O)cccc2C1 (stereo not drawn) [Compound 40i, Benzo[b]thiophen-2-yl-(4-{2-[(5-hydroxy-1,2,3,4-tetrahydro-naphthalen-2-yl)-propyl-amino]-ethyl}-piperazin-1-yl)-methanone]
D2L receptor
  Ki: 76.9 nM
D3 receptor
  Ki: 1.69 nM

## CCCN(CCN1CCN(c2ccc3[nH]ccc3c2)CC1)C1CCc2ccc(O)cc2C1 (stereo not drawn) [Compound 52, 7-((2-(4-(1H-indol-5-yl)piperazin-1-yl)ethyl)(propyl)amino)-5,6,7,8-tetrahydro-naphthalen-2-ol]
D2L receptor
  Ki: 30 nM
D3 receptor
  Ki: 2 nM

## CCCN(CCN1CCN(C(=O)c2ccc3[nH]ccc3c2)CC1)[C@H]1CCc2c(O)cccc2C1 [Compound (−)-45, (S)-(4-{2-[(5-Hydroxy-1,2,3,4-tetrahydro-naphthalen-2-yl)-propyl-amino]-ethyl}-piperazin-1-yl)-(1H-indol-5-yl)-methanone]
D2L receptor
  Ki: 157 nM
D3 receptor
  Ki: 2.27 nM

## C#CCNCc1ccc(O)c2ncccc12 [Compound M30, 5-((prop-2-ynylamino)methyl)quinolin-8-ol]
[1]
  Activity in animal experiments: antioxidant and neuroprotective

## OCCN1CCN(Cc2ccc(O)c3ncccc23)CC1 [VK 28, 5-((4-(2-hydroxyethyl)piperazin-1-yl)methyl)quinolin-8-ol]
[1]
  Activity in animal experiments: antioxidant and neuroprotective

## CN1CCc2cccc3c2[C@H]1Cc1ccc(O)c(O)c1-3 [apomorphine]
6-OHDA lesioned rats; 0.05 mg/kg, 21 days post lesion, recorded for 30 min
  Average contralateral rotation: > 250

## CCCN(CCC)CCc1cccc2c1CC(=O)N2 [ropinirole, reference compound]
hD3 receptor
  Agonism at D3 compared with dopamine: full or near-complete agonism
Reserpinized rats
  Reversal of reserpine-induced hypolocomotion (horizontal locomotor activity): significantly different
Reserpinized rats; compared with (−)19b
  Duration of action in reserpinized rats: much shorter duration of action
6-OHDA lesioned rats; 5 μMol/kg
  Rotations and duration of action: much less rotations with shorter duration of action
6-OHDA lesioned rats; (−)19b two doses i.p., ropinirole
  Effect on rotations compared to vehicle (Dunnett): significant
